Laboratory results: PMC8922279, “Identification of β-Lactams Active against Mycobacterium tuberculosis by a Consortium of Pharmaceutical Companies and Academic Institutions” (ACS Infectious Diseases, 2022)
Read-outs that look alike come from different tables or passages of the source.

Columns and labels:
in vitro [1] = conditions: human, plasma, Plasma stability % Remaining
E. coli = assay: Microbial spectrum, E. coli; type: cell-based, Escherichia coli; conditions: clavulanate 4 μg/mL; Table S4
in vivo [2] = conditions: female, CD-1, mouse
in vitro [3] = conditions: cynomolgus monkey, plasma, pH 7.4
in vitro [4] = conditions: human; for Papp A→B at 120 min, 3 μM / Papp B→A at 120 min, 3 μM: Caco-2, pH 7.4
in vitro [5] = conditions: CD-1, mouse, plasma, pH 7.4, % bound to plasma
Mtb H37Rv [6] = assay: MIC90 against nonreplicating (NR, 4-stress) Mtb H37Rv, with or without clavulanate; type: cell-based, Mycobacterium tuberculosis; conditions: 4-stress nonreplicating, Table S4; for Mtb H37Rv NR + CLAV (MIC90): clavulanate 4 μg/mL; for Mtb H37Rv NR (MIC90): no clavulanate
in vitro [7] = conditions: SD, rat, plasma, pH 7.4, % bound to plasma
physchem [8] = conditions: simulated gi fluid, pH 1.2
Mtb H37Rv [9] = assay: MIC90 against replicating (R) Mtb H37Rv, with or without clavulanate; type: cell-based, Mycobacterium tuberculosis; conditions: Table S4; for Mtb H37Rv R + CLAV (MIC90): clavulanate 4 μg/mL; for Mtb H37Rv R (MIC90): no clavulanate
[10] = 300 mg/kg sc, uninfected DHP-1 mice
in vitro [11] = conditions: beagle, dog, plasma
in vitro [12] = conditions: monkey, plasma
in vitro [13] = conditions: SD, rat, plasma, Plasma stability % Remaining
in vivo [14] = conditions: female, 129sv DHP-1 knockout, mouse, sc, 50 mg/kg
HepG2 cells = assay: Cytotoxicity against HepG2 cells (CellTiter-Glo); type: cell-based, human; conditions: Table S4
Experimental: Compounds were tested for cytotoxicity against HepG2 cells as previously described.[48],[69],[70] Briefly, cells were exposed to compounds for 48–72 h, and viability was measured using CellTiter-Glo (Promega).

physchem [15] = conditions: simulated gi fluid, pH 6.5, FaSSIF Stability, % remaining
in vitro [16] = conditions: male, CD-1, mouse, plasma, Plasma stability % Remaining
S. aureus = assay: Microbial spectrum, S. aureus; type: cell-based, Staphylococcus aureus; conditions: clavulanate 4 μg/mL; Table S4
P. aeruginosa = assay: Microbial spectrum, P. aeruginosa; type: cell-based, Pseudomonas aeruginosa; conditions: clavulanate 4 μg/mL; Table S4
in vivo [17] = conditions: DHP-1 knockout, mouse, sc, 300 mg/kg
[18] = female, 129sv DHP-1 knockout, mouse, in vivo
in vitro [19] = conditions: beagle, dog, plasma, pH 7.4
in vitro [20] = conditions: human, plasma, pH 7.4, % bound to plasma
wild-type Mtb H37Rv = type: in vivo, 129sv DHP-1 knockout mice; conditions: for Log10 CFU per mouse (lungs), Mean: 50 mg/kg sc bid + clavulanate 100 mg/kg po bid, days 9-15, lungs day 16, untreated day 16 mean 9.1; for reduction of lung CFU compared to untreated control mice: mouse, in vivo
C. albicans = assay: Microbial spectrum, C. albicans; type: cell-based, Candida albicans; conditions: no clavulanate; Table S4
[21] = Caco-2, pH 7.4, Caco-2 Mean Recovery % A to B
[22] = Caco-2, pH 7.4, Caco-2 Mean Recovery % B to A

CN(C)C(=S)SCC1=C(C(=O)O)N2C(=O)[C@@H](NC(=O)Cc3cccs3)[C@H]2SC1 [TBBL-0000009]
Caco-2 Rank Papp (Caco-2 cells): Moderate | remaining at 2 h, 2 μM (in vitro [1]): 97.9% | E.coli R + CLAV (MIC90) (E. coli): > 100 µM | AUC(0-t) (in vivo [2]; iv, 5 mg/kg): 20300 ng·h/mL | Vd (in vivo [2]; iv, 5 mg/kg): 0.18 L/kg | clearance (in vivo [2]; iv, 5 mg/kg): 4.25 mL/min/kg | half-life (in vivo [2]; iv, 5 mg/kg): 30 min | k el (in vivo [2]; iv, 5 mg/kg): 0.000389 s⁻¹ | AUC(0-t) (in vivo [2]; po, 25 mg/kg): 1360 ng·h/mL | bioavailability (in vivo [2]; po, 25 mg/kg): 1.33% | fraction unbound at 4 h, 2 μM (in vitro [3]): 0.047 | Papp A→B at 120 min, 3 μM (in vitro [4]): < 0.5 ×10⁻⁶ cm/s | Papp B→A at 120 min, 3 μM (in vitro [4]): < 0.43 ×10⁻⁶ cm/s | recovery at 120 min, 3 μM (in vitro [4]; [21]): < 98.3% | recovery at 120 min, 3 μM (in vitro [4]; [22]): < 103% | fraction unbound at 4 h, 2 μM (in vitro [5]): 0.095 | Mtb H37Rv NR + CLAV (MIC90) (Mtb H37Rv [6]): > 100 µM | Mtb H37Rv NR (MIC90) (Mtb H37Rv [6]): > 100 µM | fraction unbound at 4 h, 2 μM (in vitro [7]): 0.022 | remaining at 1 h, 10 μM (physchem [8]): 31.7% | remaining at 24 h, 10 μM (physchem [8]): 9.96% | Mtb H37Rv R + CLAV (MIC90) (Mtb H37Rv [9]): 4 µM | Mtb H37Rv R (MIC90) (Mtb H37Rv [9]): 8 µM | Tlast [10]: 4.0 h | remaining at 2 h, 2 μM (in vitro [11]): 104% | remaining at 2 h, 2 μM (in vitro [12]): 133% | remaining at 2 h, 2 μM (in vitro [13]): 95.8% | AUC(0-t) (in vivo [14]): 975 ng·h/mL | Cmax (in vivo [14]): 380 ng/mL | Tmax (in vivo [14]): 30 min | HepG2 LD50 (HepG2 cells): 6.6 µM | remaining at 6 h, 10 μM (physchem [15]): 85.3% | remaining at 24 h, 10 μM (physchem [15]): 90.9% | remaining at 2 h, 2 μM (in vitro [16]): 93% | S.aureus R + CLAV (MIC90) (S. aureus): 1 µM | P.aeruginosa R + CLAV (MIC90) (P. aeruginosa): > 100 µM | AUC(0-t) (in vivo [17]): 8810 ± 675 ng·h/mL | Cmax (in vivo [17]): 2650 ± 266 ng/mL | Tmax (in vivo [17]): 120 to 240 min | Tlast [18]: 6.0 h | fraction unbound at 4 h, 2 μM (in vitro [19]): 0.084 | fraction unbound at 4 h, 2 μM (in vitro [20]): 0.034 | Log10 CFU per mouse (lungs), Mean (wild-type Mtb H37Rv): 8.7 Log10 CFU | reduction of lung CFU compared to untreated control mice (wild-type Mtb H37Rv): ~0.4 log10 | C.albicans R (MIC90) (C. albicans): > 100 µM

O=C(CCCC(NC(=O)c1ccc(Cl)cc1Cl)C(=O)O)N[C@@H]1C(=O)N2C(C(=O)O)=C(CSc3cccc[n+]3[O-])CS[C@H]12 (stereo partly shown) [TBBL-0000552]
Caco-2 Rank Papp (Caco-2 cells): Low | remaining at 2 h, 2 μM (in vitro [1]): 78.6% | E.coli R + CLAV (MIC90) (E. coli): 92.6 µM | AUC(0-t) (in vivo [2]; iv, 5 mg/kg): 7570 ng·h/mL | Vd (in vivo [2]; iv, 5 mg/kg): 0.74 L/kg | clearance (in vivo [2]; iv, 5 mg/kg): 11 mL/min/kg | half-life (in vivo [2]; iv, 5 mg/kg): 46.8 min | k el (in vivo [2]; iv, 5 mg/kg): 0.000247 s⁻¹ | AUC(0-t) (in vivo [2]; po, 25 mg/kg): 42 ng·h/mL | bioavailability (in vivo [2]; po, 25 mg/kg): 0.11% | fraction unbound at 4 h, 2 μM (in vitro [3]): 0.198 | Papp A→B at 120 min, 3 μM (in vitro [4]): < 0.43 ×10⁻⁶ cm/s | Papp B→A at 120 min, 3 μM (in vitro [4]): 0.38 ×10⁻⁶ cm/s | recovery at 120 min, 3 μM (in vitro [4]; [21]): < 106% | recovery at 120 min, 3 μM (in vitro [4]; [22]): 123% | fraction unbound at 4 h, 2 μM (in vitro [5]): 0.439 | Mtb H37Rv NR + CLAV (MIC90) (Mtb H37Rv [6]): 2.1 µM | Mtb H37Rv NR (MIC90) (Mtb H37Rv [6]): 1.9 µM | fraction unbound at 4 h, 2 μM (in vitro [7]): 0.109 | remaining at 1 h, 10 μM (physchem [8]): 105% | remaining at 24 h, 10 μM (physchem [8]): 61.5% | Mtb H37Rv R + CLAV (MIC90) (Mtb H37Rv [9]): 2.9 µM | Mtb H37Rv R (MIC90) (Mtb H37Rv [9]): 2.8 µM | Tlast [10]: 4.0 h | remaining at 2 h, 2 μM (in vitro [11]): 77.9% | remaining at 2 h, 2 μM (in vitro [12]): 119% | remaining at 2 h, 2 μM (in vitro [13]): 77.8% | AUC(0-t) (in vivo [14]): 3660 ng·h/mL | Cmax (in vivo [14]): 6190 ng/mL | Tmax (in vivo [14]): 30 min | HepG2 LD50 (HepG2 cells): 74.3 µM | remaining at 6 h, 10 μM (physchem [15]): 111% | remaining at 24 h, 10 μM (physchem [15]): 106% | remaining at 2 h, 2 μM (in vitro [16]): 89.4% | S.aureus R + CLAV (MIC90) (S. aureus): > 100 µM | P.aeruginosa R + CLAV (MIC90) (P. aeruginosa): > 100 µM | AUC(0-t) (in vivo [17]): 61900 ± 24900 ng·h/mL | Cmax (in vivo [17]): 29900 ± 11000 ng/mL | Tmax (in vivo [17]): 60 to 120 min | Tlast [18]: 3.0 h | fraction unbound at 4 h, 2 μM (in vitro [19]): 0.417 | fraction unbound at 4 h, 2 μM (in vitro [20]): 0.143 | Log10 CFU per mouse (lungs), Mean (wild-type Mtb H37Rv): 9.4 Log10 CFU | C.albicans R (MIC90) (C. albicans): > 100 µM

NC(C(=O)N[C@@H]1C(=O)N2C(C(=O)O)=C(CSc3cccc[n+]3[O-])CS[C@H]12)c1ccc(O)cc1 (stereo partly shown) [TBBL-0000652]
Comments (tolerability) [10]: Recovered at t= 8h | Tlast [10]: 2.0 to 4.0 h | AUC(0-t) (in vivo [14]): 11500 ng·h/mL | Cmax (in vivo [14]): 8320 ng/mL | Tmax (in vivo [14]): 60 min | AUC(0-t) (in vivo [17]): 29400 ± 32900 ng·h/mL | Cmax (in vivo [17]): 22200 ± 21700 ng/mL | Tmax (in vivo [17]): 60 to 120 min | Tlast [18]: 3.0 h | Log10 CFU per mouse (lungs), Mean (wild-type Mtb H37Rv): 8.6 Log10 CFU | reduction of lung CFU compared to untreated control mice (wild-type Mtb H37Rv): ~0.5 log10
